The numbers were not newly measured in paper PMC6114101 (International Journal for Parasitology: Drugs and Drug …, 2018), which cites them from elsewhere.

The test system of series [1] is N. caninum. Conditions: ref Ojo et al., 2014; Winzer et al., 2015; Müller et al., 2017a.
The test system of series [2] is human ether-a-go-go-related gene (hERG) ion channel. To be noted: ref Vidadala et al., 2016.
The conditions of series [3]: ref Ojo et al., 2013.

Molecules are shown by their SMILES.

As to `CCOc1ccc2cc(-c3nn(C(C)(C)C)c(N)c3C(N)=O)cnc2c1` [BKI-1517], the “activity against N. caninum in vitro” value in series [1] is on record as “effective”.
On to `CCOc1ccc2cc(-c3nn(CC4CCN(C)CC4)c4ncnc(N)c34)ccc2c1` [BKI-1294], for which the hERG inhibition result in series [2] is given as “potent”. For the same compound, the excreted in urine in series [3] was 1%. In addition, the “activity against N. caninum in vitro” value in series [1] was “effective”.
